Results reported in US20130102535A1, “Method for Preventing Myocardial Ischemia” (Shanghai Bajiayi Pharmaceutical Science and Technology Co. …, priority 2009, published 2013).
Several values for one entry are separate records, joined by “and”; a condition that tells them apart may be missing. Equal entries are not always repeated.

Experiments:
[1] = tested on: rat myocardial ischemia models induced by coronary artery ligation; assay: Myocardial infarction area of rats after coronary artery ligation (N-BT staining); format: in vivo, Sprague-Dawley male rats; conditions: 5 hours after coronary artery ligation, x ± SD
Description: Sprague-Dawley male rats of clean grade weighting 200-220 g were supplied by the animal experimental center of the Second Military Medical University (license number: SCXK (Shanghai)-2007-0003). • 2.1.2 Experimental groups
Experimental rats were randomly divided into four groups: sham group: n=8, model group: n=9, MLIF low-dose group: n=11, MLIF high-dose group: n=12. The dose of medicine could be administrated according to rat body weight. MLIF low-dose group and MLIF high-dose group were administrated by tail intravenous injection prepared with normal saline as solvent at the dose of 0.15 mg/kg and 0.5 mg/kg, respectively. • 2.1.3 Coronary artery ligation and measurement of myocardial infarction area of rats
The Sprague-Dawley male rats were abdomen anesthetized with 25% urethane (0.4 ml/100 g) and fixated at supine position. The chest was cut open among the fifth rib at left, and then the fourth and fifth ribs were cut off along the left side of sterna at 2 mm. The pericardium was snipped off with heart exposed, and a 0/3 suture line was passed through the left anterior descending coronary artery. The rats were administrated by tail intravenous injection slowly. After 10 minutes, the left anterior descending coronary artery was ligated rapidly and the heart was returned to its chest, removing the air within the thorax by hand, closing the thorax and tightening the purse-string suture rapidly. The entire process of opening and closing chest was performed within 30 seconds. The coronary arteries of rats of sham group were not ligated since the myocardial ischemia would be caused by coronary artery ligation.
The rats were administrated by tail intravenous injection with the dose of 0.15 mg/kg (MLIF low-dose group) and 0.5 mg/kg (MLIF high-dose group) at 15 minutes after coronary artery ligation with the same volume of normal saline administrated in sham group and model group. Each group of animals was executed at 5 hours after coronary artery ligation. The heart was taken out and the heart ventricle muscle was transversely chipped into 5 slices, the cut position of which was parallel to coronary sulcus under the coronary artery ligation line. The five slices of the heart ventricle muscle were stained with Nitroblue tetrazolium (N-BT) for 15 minutes with shaking. The normal heart ventricle muscle was dyed into dark blue while that of the area of myocardial infarction was unstained with normally light yellow. The area of myocardial infarction was isolated by a dissecting microscope and the whole heart weight, the left ventricle weight and the area of myocardial infarction weight were weighed, respectively, the percent (%) of area of myocardial infarction weight to whole heart weight were quantified as an measure on myocardial infarction area ranges. • 2.1.4 Data and statistics analysis
(§1) All experimental data are given as x±SD. Differences between the groups were calculated by analysis of variance (SPSS 10.0).

[2] = tested on: acute myocardial ischemia rats (coronary artery ligation); assay: Serum creatine kinase (CK) and lactic dehydrogenase (LDH) of acute myocardial ischemia rats; format: in vivo, Sprague-Dawley male rats; conditions: blood at 5 hours after coronary artery ligation, x ± SD; for LDH activity in blood serum: P < 0.01 vs model group; for CK activity in blood serum: P < 0.05 vs model group
Description: Sprague-Dawley male rats of clean grade weighting 200-220 g were supplied by the animal experimental center of the Second Military Medical University (license number: SCXK (Shanghai)-2007-0003). • 2.2.2 Experimental groups
Experimental rats were randomly divided into four groups: sham group: n=7, model group: n=8, MLIF low-dose group: n=8, MLIF high-dose group: n=9. The dose of medicine could be administrated according to rat body weight. MLIF low-dose group and MLIF high-dose group were administrated by tail intravenous injection prepared with normal saline as solvent at the dose of 0.15 mg/kg and 0.5 mg/kg, respectively. • 2.2.3 Coronary artery ligation and determination of CK and LDH in blood serum
Coronary artery ligations of rats were carried out as described previously. 3m1 blood sample of each animal was taken from femoral artery at 5 hours after coronary artery ligation and the blood serum was collected according to the method of convengtional centrifugalization. The creatine kinase (CK) and lactic dehydrogenase (LDH) activities in blood serum were measured by semi-automatic biochemical analyzer. • 2.2.4 Data and statistics analysis
as §1

[3] = MLIF high-dose group 0.5 mg/kg tail i.v.
[4] = MLIF high-dose group 0.5 mg/kg tail i.v., P < 0.01 vs model group
[5] = MLIF low-dose group 0.15 mg/kg tail i.v.
[6] = MLIF low-dose group 0.15 mg/kg tail i.v., P < 0.05 vs model group

Met-Gln-Cys-Asn-Ser (MQCNS) [MLIF]
area of myocardial infarction weight [1, 3]: 158 ± 22.4^ΔΔ mg | area of myocardial infarction/ left ventricle [1, 4]: 30±3.7% and 30 ± 3.7^ΔΔ, ** % | area of myocardial infarction/ whole heart [1, 4]: 20±2.7% and 20 ± 2.7^ΔΔ, ** % | area of myocardial infarction weight [1, 5]: 187 ± 22.8^ΔΔ mg | area of myocardial infarction/ left ventricle [1, 6]: 33±3.2% and 33 ± 3.2^ΔΔ, * % | area of myocardial infarction/ whole heart [1, 6]: 22±1.9% and 22 ± 1.9^ΔΔ, * % | LDH activity in blood serum [2, 3]: 3642±817 IU/L and 3642 ± 817^ΔΔ, ** IU/L | CK activity in blood serum [2, 3]: 5244±1787.8 IU/L and 5244 ± 1787.8^ΔΔ, * IU/L | LDH activity in blood serum [2, 5]: 3156±864.1 IU/L and 3156 ± 864.1^ΔΔ, ** IU/L | CK activity in blood serum [2, 5]: 5258±2114.3 IU/L and 5258 ± 2114.3^ΔΔ, * IU/L
